Laboratory results: patent US20100137315A1, “Sphingosine Kinase Inhibitors and Methods of Their Use” (APOGEE BIOTECHNOLOGY CORPORATION, priority 2005, published 2010)
Like-named read-outs stand apart in the source and are kept apart here.

Assays:
[1] = tested on: MCF-7 human breast adenocarcinoma cells; assay: Cytotoxicity, SRB assay, 48 h; assay type: cell-based; conditions: Table 6, 48 h, SRB, inhibition of cell proliferation, read-out: MCF-7 IC50
Method: To further assess the biological efficacies of the Compounds in intact cells, each Compound was evaluated for cytotoxicity using human cancer cell lines. These experiments followed methods that have been extensively used. Cell lines tested included MCF-7 human breast adenocarcinoma cells. The indicated cell lines were treated with varying doses of the test Compound for 48 h. Cell survival was then determined using the SRB binding assay (Skehan et al., 1990, J Natl Cancer Inst 82: 1107), and the concentration of compound that inhibited proliferation by 50% (the IC50) was calculated. Values (in μM) represent the mean±sd for replicate trials.

[2] = target: T1, recombinant human SK (Homo sapiens, UniProt Q9NYA1); assay: Inhibition of recombinant human SK, LC/MS/MS assay; assay type: biochemical; conditions: 6 μg/ml compound
T1 construct: glutathione-S-transferase (GST) (N); made in house; host or cells: bacteria (pGEX vector)
T1 sequence (Q9NYA1 whole entry): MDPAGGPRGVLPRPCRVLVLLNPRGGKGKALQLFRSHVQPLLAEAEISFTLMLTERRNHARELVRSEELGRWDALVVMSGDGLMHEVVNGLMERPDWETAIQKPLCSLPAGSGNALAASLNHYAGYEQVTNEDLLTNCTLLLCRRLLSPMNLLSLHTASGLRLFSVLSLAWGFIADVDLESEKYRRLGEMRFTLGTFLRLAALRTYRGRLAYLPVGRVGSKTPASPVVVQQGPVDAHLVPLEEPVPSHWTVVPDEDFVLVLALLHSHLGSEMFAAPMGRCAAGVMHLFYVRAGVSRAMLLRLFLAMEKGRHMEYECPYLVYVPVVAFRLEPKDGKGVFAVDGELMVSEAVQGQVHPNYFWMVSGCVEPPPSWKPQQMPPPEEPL
Method: An assay for identifying inhibitors of recombinant human SK has been established (French et al., 2003, Cancer Res 63: 5962). cDNA for human SK was subcloned into a pGEX bacterial expression vector, which results in expression of the enzyme as a fusion protein with glutathione-S-transferase, and the fusion protein is then purified on a column of immobilized glutathione. SK activity is measured by incubation of the recombinant SK with [^3H]sphingosine and 1 mM ATP under defined conditions, followed by extraction of the assay mixture with chloroform:methanol under basic conditions. […] Radioactivity in aliquots of the aqueous phase is then quantified as a measure of [^3H]S1P formation. There is a low background level of partitioning of [^3H]sphingosine into the aqueous phase, and addition of the recombinant SK greatly increases the formation of [^3H]S1P.
In an alternate assay procedure, the recombinant human SK was incubated with unlabeled sphingosine and ATP as described above. After 30 minutes, the reactions were terminated by the addition of acetonitrile to directly extract the newly synthesized S1P. The amount of S1P in the samples is then quantified as follows. C17 base D-erythro-sphingosine and C17 S1P are used as internal standards for sphingosine and S1P, respectively. These seventeen-carbon fatty acid-linked sphingolipids are not naturally produced, making these analogs excellent standards. The lipids are then fractionation by High-Performance Liquid Chromatography using a C8-reverse phase column eluted with 1 mM methanolic ammonium formate/2 mM aqueous ammonium formate. A Finnigan LCQ Classic LC-MS/MS is used in the multiple reaction monitoring positive ionization mode to acquire ions at m/z of 300 (precursor ion)→282 (product ion) for sphingosine and 380→264 for S1P. Calibration curves are generated by plotting the peak area ratios of the synthetic standards for each sphingolipid, and used to determine the normalized amounts of sphingosine and S1P in the samples.
Each Compound of this invention was tested for its ability to inhibit recombinant SK using the LC/MS/MS assay described above. Typically, the Compounds were individually dissolved in dimethylsulfoxide and tested at a final concentration of 6 micrograms/ml.

Row | Compound | inhibition at 6 µg/mL [2] [%] | IC50 [1] [µM] | IC50 ([1]; Homo sapiens, MCF7) [µM]
1 | 4-(4-Chloro-phenyl)-thiazole-2-carboxylic acid (2-pyridin-4-yl)-amide [Compound 74] |  | 120 | 
2 | CCCCCCCCC=CCCCCCCCC(=O)Nc1nc(-c2ccc(Cl)cc2)cs1 [Compound 6, Octadec-9-enoic acid [4-(4-chloro-phenyl)-thiazol-2-yl]-amide] | 0 |  | 105
3 | COc1cc(C=CC(=O)Nc2nc(-c3cccc(Cl)c3)cs2)ccc1O [Compound 9, N-[4-(3-Chloro-phenyl)-thiazol-2-yl]-3-(4-hydroxy-3-methoxy-phenyl)-acrylamide] |  |  | 7.8
4 | CCCC(=O)Oc1ccc(C=CC(=O)Nc2nc(-c3ccc(Cl)cc3)cs2)cc1OC(=O)CCC [Compound 11, Butyric acid 2-butyryloxy-5-{2-[4-(4-chloro-phenyl)-thiazol-2-ylcarbamoyl]-vinyl}-phenyl ester] |  |  | 10
5 | CC(=O)Oc1ccc(C=CC(=O)Nc2nc(-c3ccc(Cl)cc3)cs2)cc1 [Compound 12, Acetic acid 4-{2-[4-(4-chloro-phenyl)-thiazol-2-ylcarbamoyl]-vinyl}-phenyl ester] |  |  | 125
6 | CCCC(=O)Oc1ccc(CC(=O)Nc2nc(-c3ccc(Cl)cc3)cs2)cc1OC [Compound 16, Butyric acid 4-{[4-(4-chloro-phenyl)-thiazol-2-ylcarbamoyl]-methyl}-2-methoxy-phenyl ester] |  |  | 5.6
7 | CCCC(=O)Oc1ccc(CC(=O)Nc2nc(-c3ccc(Cl)cc3)cs2)cc1OC(=O)CCC [Compound 17, Butyric acid 2-butyryloxy-5-{[4-(4-chloro-phenyl)-thiazol-2-ylcarbamoyl]-methyl}-phenyl ester] |  |  | 4
8 | CCCC(=O)Oc1cc(C=CC(=O)Nc2nc(-c3ccc(Cl)cc3)cs2)ccc1OC [Compound 18, Butyric acid 5-{2-[4-(4-chloro-phenyl)-thiazol-2-ylcarbamoyl]-vinyl}-2-methoxy-phenyl ester] |  |  | 2.7
9 | O=C(Nc1nc2cc(Cl)ccc2o1)c1ccccc1[N+](=O)[O-] [Compound 87, N-(5-Chloro-benzooxazol-2-yl)-2-nitro-benzamide] |  |  | 9.8
10 | O=C(C=Cc1ccccc1)Nc1nc2cc(Cl)ccc2o1 [Compound 88, N-(5-Chloro-benzooxazol-2-yl)-3-phenyl-acrylamide] |  |  | 1.3
11 | O=C(C=Cc1ccc([N+](=O)[O-])cc1)Nc1nc2cc(Cl)ccc2o1 [Compound 89, N-(5-Chloro-benzooxazol-2-yl)-3-(4-nitro-phenyl)-acrylamide] |  |  | 1.2
12 | C=CCCCCCCCCC(=O)Nc1nc2cc(Cl)ccc2o1 [Compound 90, Undec-10-enoic acid (5-chloro-benzooxazol-2-yl)-amide] |  |  | 19
13 | CCCCCCCCCCCCCC(=O)Nc1nc2cc(Cl)ccc2o1 [Compound 91, Tetradecanoic Acid (5-chloro-benzooxazol-2-yl)-amide] |  |  | 2.6
14 | CCCCCCCCCCCCCCCC(=O)Nc1nc2cc(Cl)ccc2o1 [Compound 92, Hexadecanoic Acid (5-chloro-benzooxazol-2-yl)-amide] |  |  | 7.6
15 | O=C(Nc1nc2cc(Cl)ccc2s1)c1ccccc1O [Compound 96, N-(5-Chloro-benzothiazol-2-yl)-2-hydroxy-benzamide] |  |  | 24

More lines, main results first:

Row | inhibition at 6 µg/mL [2] [%] | Compound | IC50 [1] [µM] | IC50 ([1]; Homo sapiens, MCF7) [µM]
16 | 30 | CCCCCCCCCCCCCC(=O)Nc1nc(-c2ccc(Cl)cc2)cs1 [Compound 2, Tetradecanoic acid [4-(4-chloro-phenyl)-thiazol-2-yl]-amide] |  | 1.9
17 | 53 | C=CCCCCCCCCC(=O)Nc1nc(-c2ccc(Cl)cc2)cs1 [Compound 4, Undec-10-enoic acid [4-(4-chloro-phenyl)-thiazol-2-yl]-amide] |  | 33
18 | 0 | O=C(C=Cc1ccc([N+](=O)[O-])cc1)Nc1nc(-c2ccc(Cl)cc2)cs1 [Compound 5, N-[4-(4-Chloro-phenyl)-thiazol-2-yl]-3-(4-nitro-phenyl)-acrylamide] |  | 16
19 | 71 | O=C(C=Cc1ccccc1)Nc1nc(-c2ccc(Cl)cc2)cs1 [Compound 7, N-[4-(4-Chloro-phenyl)-thiazol-2-yl]-3-phenyl-acrylamide] |  | 18
20 | 100 | COc1cc(C=CC(=O)Nc2nc(-c3ccc(Cl)cc3)cs2)ccc1OC(C)=O [Compound 10, Acetic acid 4-{2-[4-(4-chloro-phenyl)-thiazol-2-ylcarbamoyl]-vinyl}-2-methoxy-phenyl ester] |  | 24
21 | 0 | CCCC(=O)Oc1ccccc1C=CC(=O)Nc1nc(-c2ccc(Cl)cc2)cs1 [Compound 13, Butyric acid 2-{2-[4-(4-chloro-phenyl)-thiazol-2-ylcarbamoyl]-vinyl}-phenyl ester] |  | 2.3
22 | 0 | CCCC(=O)Oc1cccc(C=CC(=O)Nc2nc(-c3ccc(Cl)cc3)cs2)c1 [Compound 14, Butyric acid 3-{2-[4-(4-chloro-phenyl)-thiazol-2-ylcarbamoyl]-vinyl}-phenyl ester] |  | 2.9
23 | 60 | O=C(Nc1nnn[nH]1)c1nc(-c2ccc(Cl)cc2)cs1 [Compound 62, 4-(4-Chloro-phenyl)-thiazole-2-carboxylic Acid (1H-tetrazol-5-yl)-amide] |  | 
24 | 3 | CS(=O)(=O)c1ccc(CNC(=O)c2nc(-c3ccc(Cl)cc3)cs2)cc1 [Compound 63, 4-(4-Chloro-phenyl)-thiazole-2-carboxylic Acid 4-methanesulfonyl-benzylamide] |  | 
25 | 90 | O=C(NCCc1ccc2c(c1)OCO2)c1nc(-c2ccc(Cl)cc2)cs1 [Compound 64, 4-(4-Chloro-phenyl)-thiazole-2-carboxylic Acid (2-benzo[1,3]dioxol-5-yl-ethyl)-amide] |  | 
26 | 66 | O=C(Nc1nc(-c2ccc(Cl)cc2)cs1)c1cccc(F)c1 [Compound 65, N-[4-(4-Chloro-phenyl)-thiazol-2-yl]-3-fluoro-benzamide] |  | 
27 | 61 | O=C(Nc1nc(-c2ccc(Cl)cc2)cs1)c1ccc(C(F)(F)F)cc1F [Compound 66, N-[4-(4-Chloro-phenyl)-thiazol-2-yl]-2-fluoro-4-trifluoromethyl-benzamide] |  | 
28 | 41 | O=C(Nc1nc(-c2ccc(Cl)cc2)cs1)c1ccc(F)cc1 [Compound 67, N-[4-(4-Chloro-phenyl)-thiazol-2-yl]-4-fluoro-benzamide] |  | 
29 | 73 | O=C(Nc1nc(-c2ccc(Cl)cc2)cs1)c1ccc(Cl)cc1Cl [Compound 68, 2,4-Dichloro-N-[4-(4-chloro-phenyl)-thiazol-2-yl]-benzamide] |  | 
30 | 55 | O=C(Nc1nc(-c2ccc(Cl)cc2)cs1)C(Cl)c1ccccc1 (centres unmarked) [Compound 69, 2-Chloro-N-[4-(4-chloro-phenyl)-thiazol-2-yl]-2-phenyl-acetamide] |  | 
31 | 54 | O=C(Cc1ccc(F)cc1)Nc1nc(-c2ccc(Cl)cc2)cs1 [Compound 70, N-[4-(4-Chloro-phenyl)-thiazol-2-yl]-2-(4-fluoro-phenyl)-acetamide] |  | 
32 | 3 | O=C(NCc1cc(F)cc(C(F)(F)F)c1)c1nc(-c2ccc(Cl)cc2)cs1 [Compound 75, 4-(4-Chloro-phenyl)-thiazole-2-carboxylic acid 3-fluoro-5-trifluoromethyl-benzylamide] |  | 
33 | 51 | O=C(NCCN1CCOCC1)c1nc(-c2ccc(Cl)cc2)cs1 [Compound 76, 4-(4-Chloro-phenyl)-thiazole-2-carboxylic acid (2-morpholin-4-yl-ethyl)-amide] |  | 
34 | 85 | Fc1cc(F)cc(OCNc2nc(-c3ccc(Cl)cc3)cs2)c1 [Compound 77, [4-(4-Chloro-phenyl)-thiazol-2-yl]-(3,5-difluoro-phenoxymethyl)-amine] |  | 
35 | 70 | Fc1ccc(F)c(OCNc2nc(-c3ccc(Cl)cc3)cs2)c1 [Compound 78, [4-(4-Chloro-phenyl)-thiazol-2-yl]-(2,5-difluoro-phenoxymethyl)-amine] |  | 
36 | 53 | Fc1cc(F)cc(COCNc2nc(-c3ccc(Cl)cc3)cs2)c1 [Compound 79, [4-(4-Chloro-phenyl)-thiazol-2-yl]-(3,5-difluoro-benzyloxymethyl)-amine] |  | 
